# Assay results reported in article PMC4404097, “The Inhibitory Effects of Ca^2+ Channel Blocker Nifedipine on Rat Kv2.1 Potassium Channels” (PLoS ONE, 2015).
# Changes are numbered by the printed parent chain.
# Experiments:
# [1] = target: T1, rat Kv2.1 (Rattus norvegicus, UniProt P15387); assay: whole-cell patch clamp, Hill fit of concentration-response; type: cell-based
# T1 construct: gene Kcnb1; rat Kv2.1 subcloned in pEYFP-N1 (XhoI/EcoRI); homotetramer
# T1 sequence (P15387 1-857): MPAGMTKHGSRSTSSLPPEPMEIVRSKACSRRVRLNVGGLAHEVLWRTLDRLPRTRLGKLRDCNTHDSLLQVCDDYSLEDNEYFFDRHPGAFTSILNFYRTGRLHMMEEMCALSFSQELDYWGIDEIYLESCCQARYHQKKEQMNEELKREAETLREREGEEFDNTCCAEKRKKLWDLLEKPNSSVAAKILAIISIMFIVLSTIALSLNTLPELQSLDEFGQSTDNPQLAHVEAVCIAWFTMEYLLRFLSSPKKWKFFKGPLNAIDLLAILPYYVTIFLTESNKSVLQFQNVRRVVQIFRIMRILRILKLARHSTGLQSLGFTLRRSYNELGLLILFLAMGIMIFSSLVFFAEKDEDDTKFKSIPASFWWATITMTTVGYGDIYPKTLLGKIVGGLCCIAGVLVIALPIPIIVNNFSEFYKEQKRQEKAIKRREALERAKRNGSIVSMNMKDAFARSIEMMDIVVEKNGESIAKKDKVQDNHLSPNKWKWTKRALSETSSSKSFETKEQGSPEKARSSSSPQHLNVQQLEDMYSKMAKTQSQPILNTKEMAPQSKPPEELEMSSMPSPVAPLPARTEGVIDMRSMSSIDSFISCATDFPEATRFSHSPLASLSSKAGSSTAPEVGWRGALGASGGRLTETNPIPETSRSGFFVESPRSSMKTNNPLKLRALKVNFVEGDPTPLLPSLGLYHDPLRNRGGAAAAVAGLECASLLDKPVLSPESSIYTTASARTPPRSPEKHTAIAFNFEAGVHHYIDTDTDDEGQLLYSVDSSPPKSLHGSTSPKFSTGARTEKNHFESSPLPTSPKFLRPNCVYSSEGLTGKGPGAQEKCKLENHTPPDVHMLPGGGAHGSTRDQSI
# [2] = target: T2, rat Kv2.1 (Rattus norvegicus, UniProt P15387, Y380R); assay: as above; type: cell-based
# T2 construct: gene Kcnb1; rat Kv2.1 subcloned in pEYFP-N1 (XhoI/EcoRI); homotetramer
# T2 sequence (P15387 1-857 Y380R): T1 sequence (P15387 1-857) with Y380R
smiles,measurement,setting,value
COC(=O)C1=C(C)NC(C)=C(C(=O)OC)C1c1ccccc1[N+](=O)[O-] [nifedipine],IC50,[1],37.5 ± 5.7 µM
same,IC50,[2],15.2 ± 1.3 µM
